Results reported in ChEMBL document CHEMBL1201862, “PubChem BioAssay data set” (2004).
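Dose response: 5 concentrations. Exposure: 48 h. Format: 96-well plates. Endpoint: linear interpolation; highest concentration if not reached. GI50 is the concentration that inhibits growth by half.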 Active and inactive are the calls of the source. No stated cut-off is given here; in the data, active = GI50 up to about 1.1 µM and inactive = higher.

What was measured:
Experiment in all cases: growth of human tumour cells (NCI), 48 h
A549 = test system: A549
DLD-1 = test system: DLD-1
HCC 2998 = test system: HCC 2998
HCT-15 = test system: HCT-15
HL-60 = test system: HL-60
KM-20L2 = test system: KM-20L2
LOX IMVI = test system: LOX IMVI
M19-MEL = test system: M19-MEL
MCF7 = test system: MCF7
Malme-3M = test system: Malme-3M
OVCAR-4 = test system: OVCAR-4
RPMI-8226 = test system: RPMI-8226
SF-268 = test system: SF-268
SF-539 = test system: SF-539
SK-MEL-28 = test system: SK-MEL-28
SNB-19 = test system: SNB-19
UACC-257 = test system: UACC-257
BT-549 = test system: BT-549
DU-145 = test system: DU-145
TK-10 = test system: TK-10

Row | SMILES | GI50 (A549) | GI50 (DLD-1) | GI50 (HCC 2998) | GI50 (HCT-15) | GI50 (HL-60) | GI50 (KM-20L2) | GI50 (LOX IMVI) | GI50 (M19-MEL) | GI50 (MCF7) | GI50 (Malme-3M) | GI50 (OVCAR-4) | GI50 (RPMI-8226) | GI50 (SF-268) | GI50 (SF-539) | GI50 (SK-MEL-28) | GI50 (SNB-19) | GI50 (UACC-257) | GI50 (BT-549) | GI50 (DU-145) | GI50 (TK-10)
1 | O=C1C=C(C2OC(CO)C(O)C2O)C(=O)N1 (centres undefined) | > 100 µM (inactive) | > 85.3 µM (inactive) | > 100 µM (inactive) | > 74.5 µM | 45.9 µM (inactive) | > 100 µM (inactive) | > 100 µM (inactive) | > 100 µM (inactive) | > 91.8 µM (inactive) | > 100 µM (inactive) | > 100 µM (inactive) | > 51.1 µM (inactive) | > 100 µM (inactive) | > 100 µM (inactive) | > 100 µM (inactive) | > 100 µM (inactive) | > 100 µM (inactive) | – | – | –
2 | O=C(C[C@H](NC(=O)OCc1ccccc1)C(=O)NC1Cc2ccccc2OC1=O)OCc1ccccc1 (some centres undefined) | – | – | 15.9 µM (inactive) | 46 µM | > 10 µM (inactive) | – | – | – | 19.4 µM (inactive) | > 100 µM (inactive) | – | > 100 µM (inactive) | – | – | > 100 µM (inactive) | > 100 µM (inactive) | – | > 100 µM (inactive) | 59.6 µM (inactive) | –
3 | CN(C(=O)C1(C(=O)C=[N+]=[N-])CC1)c1ccccc1 | > 100 µM (inactive) | – | > 100 µM (inactive) | > 100 µM | > 100 µM (inactive) | – | > 100 µM (inactive) | – | > 100 µM (inactive) | > 100 µM (inactive) | – | > 100 µM (inactive) | > 100 µM (inactive) | > 100 µM (inactive) | > 100 µM (inactive) | > 100 µM (inactive) | > 100 µM (inactive) | > 100 µM (inactive) | > 100 µM (inactive) | > 100 µM (inactive)
4 | CCOC(=O)NC(C(F)(F)F)(C(F)(F)F)P(=O)(OCC(C)C)OCC(C)C | 22.3 µM (inactive) | – | 34.6 µM (inactive) | 4.18 µM | 2.97 µM (inactive) | – | 4.49 µM (inactive) | – | 4.7 µM (inactive) | 16.2 µM (inactive) | – | 14.4 µM (inactive) | 11.1 µM (inactive) | 15.7 µM (inactive) | 18 µM (inactive) | 28.8 µM (inactive) | – | 13.2 µM (inactive) | 35 µM (inactive) | 11.9 µM (inactive)
5 | CCOC(=O)c1csc(NC(=O)CCN2CCCC2)n1 | > 100 µM (inactive) | – | > 100 µM (inactive) | > 100 µM | > 100 µM (inactive) | – | > 100 µM (inactive) | – | > 100 µM (inactive) | – | > 100 µM (inactive) | 86.7 µM (inactive) | – | > 100 µM (inactive) | > 100 µM (inactive) | > 100 µM (inactive) | > 100 µM (inactive) | – | > 100 µM (inactive) | > 100 µM (inactive)
6 | CC(=O)OCc1nnn2c1CCC2 | > 100 µM (inactive) | > 100 µM (inactive) | > 100 µM (inactive) | > 100 µM | > 100 µM (inactive) | > 100 µM (inactive) | > 100 µM (inactive) | > 100 µM (inactive) | – | > 100 µM (inactive) | > 100 µM (inactive) | – | – | > 100 µM (inactive) | > 100 µM (inactive) | – | > 100 µM (inactive) | – | – | > 100 µM (inactive)
7 | O=C1CC2(CCC(O)(c3cccs3)C(C(=O)c3cccs3)C2)C(=O)c2ccccc2N1 (centres undefined) | 95.7 µM (inactive) | – | 38.5 µM (inactive) | 28.5 µM | 29.2 µM (inactive) | – | 89.3 µM (inactive) | – | 77.4 µM (inactive) | > 100 µM (inactive) | – | – | > 100 µM (inactive) | > 100 µM (inactive) | – | – | > 100 µM (inactive) | > 100 µM (inactive) | 67.3 µM (inactive) | > 100 µM (inactive)
8 | C/C(=N\Oc1cc(Cl)ncn1)c1ccccn1 | 86.7 µM (inactive) | – | 17.4 µM (inactive) | – | – | – | 42.3 µM (inactive) | – | 55.3 µM (inactive) | 61.9 µM (inactive) | > 100 µM (inactive) | > 100 µM (inactive) | 58.2 µM (inactive) | 29.6 µM (inactive) | 39.5 µM (inactive) | > 100 µM (inactive) | 99.8 µM (inactive) | 85.3 µM (inactive) | 48.9 µM (inactive) | 59 µM (inactive)
9 | COc1ccc(-c2cc3[nH]nc(N)c3c(=O)o2)cc1 | > 100 µM (inactive) | > 100 µM (inactive) | > 100 µM (inactive) | > 100 µM | 90.4 µM (inactive) | > 100 µM (inactive) | > 100 µM (inactive) | – | – | > 100 µM (inactive) | > 100 µM (inactive) | > 100 µM (inactive) | 81.3 µM (inactive) | > 100 µM (inactive) | > 100 µM (inactive) | > 100 µM (inactive) | > 100 µM (inactive) | – | – | > 100 µM (inactive)
10 | COc1ccc2c(c1)C(=O)/C(=C/c1ccccc1)C2 | – | – | – | 69 µM | > 10 µM (inactive) | – | – | – | 7.36 µM (inactive) | > 100 µM (inactive) | 55.7 µM (inactive) | 45.7 µM (inactive) | – | – | > 100 µM (inactive) | 95.1 µM (inactive) | – | 27.2 µM (inactive) | > 100 µM (inactive) | –
11 | C=C(C)C(=O)OC1CCC2(C)C(CCC3C2CCC2(C)C(c4ccc(=O)oc4)CC4OC432)C1 (centres undefined) | 2.31 µM (inactive) | 2.18 µM (inactive) | 5.19 µM (inactive) | 6.78 µM | 0.57 µM (active) | 6.92 µM (inactive) | 3.82 µM (inactive) | 3.91 µM (inactive) | 2.48 µM (inactive) | 8.13 µM (inactive) | 5.75 µM (inactive) | 1.6 µM (inactive) | 5.31 µM (inactive) | 5.35 µM (inactive) | 12.5 µM (inactive) | 18.5 µM (inactive) | 2.96 µM (inactive) | – | – | –
12 | C=CCCCCCCCCC(=O)O [UNDECYLENIC ACID] | 103 µM (inactive) | 76.2 µM (inactive) | 108 µM (inactive) | 76.6 µM | 101 µM (inactive) | 114 µM (inactive) | 102 µM (inactive) | 149 µM (inactive) | 152 µM (inactive) | 142 µM (inactive) | 132 µM (inactive) | 129 µM (inactive) | 91 µM (inactive) | 110 µM (inactive) | 135 µM (inactive) | 150 µM (inactive) | 179 µM (inactive) | – | – | –
